Experimental data reported in article PMC8460509, “Imitating evolution’s tinkering by protein engineering reveals extension of human galectin-7 activity” (Histochemistry and cell biology, 2021).

Key:
Assay in all cases: isothermal titration calorimetry
Gal-7–Gal-7 = molecular target: T1, Gal-7–Gal-7 (Homo sapiens, UniProt P47929); assay type: binding; settings: 25 °C, pH 7.2, 20 mM phosphate, 10 mM NaCl, 10 mM beta-mercaptoethanol; one-set-of-sites, n fitted; LacNAc 10 mM
T1 construct: gene LGALS7; two Gal-7 CRDs directly fused in one polypeptide (covalent homodimer, no added residues); recombinant from E. coli
T1 sequence (P47929 whole entry, the tested form may be a part): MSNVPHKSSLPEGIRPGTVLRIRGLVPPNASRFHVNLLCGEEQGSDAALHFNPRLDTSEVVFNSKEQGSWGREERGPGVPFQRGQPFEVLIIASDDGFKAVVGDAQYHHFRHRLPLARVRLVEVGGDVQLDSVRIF
Text: isothermal titration calorimetry on Gal-7–Gal-7

Gal-1–Gal-7 = molecular target: T2, Gal-1–Gal-7; assay type: binding, Homo sapiens; settings: 25 °C, pH 7.2, 20 mM phosphate, 10 mM NaCl, 10 mM beta-mercaptoethanol; one-set-of-sites, n fitted
T2 construct: gene LGALS1; direct fusion, Gal-1 CRD N-terminal, Gal-7 CRD C-terminal; one polypeptide; recombinant from E. coli
Text: isothermal titration calorimetry on Gal-1–Gal-7

Gal-7–Gal-3 = molecular target: T3, Gal-7–Gal-3; assay type: binding, Homo sapiens; settings: 25 °C, pH 7.2, 20 mM phosphate, 10 mM NaCl, 10 mM beta-mercaptoethanol; one-set-of-sites, n fitted
T3 construct: gene LGALS7; one polypeptide; recombinant from E. coli
Text: isothermal titration calorimetry on Gal-7–Gal-3

Gal-1–8S–Gal-7 = molecular target: T4, Gal-1–8S–Gal-7; assay type: binding, Homo sapiens; settings: 25 °C, pH 7.2, 20 mM phosphate, 10 mM NaCl, 10 mM beta-mercaptoethanol; one-set-of-sites, n fitted
T4 construct: gene LGALS1; Gal-1 CRD N-terminal, 33-amino-acid linker of Gal-8S, Gal-7 CRD C-terminal; one polypeptide; recombinant from E. coli
Text: isothermal titration calorimetry on Gal-1–8S–Gal-7

Gal-7 = molecular target: T5, Gal-7 (Homo sapiens, UniProt P47929); assay type: binding; settings: 25 °C
T5 construct: gene LGALS7; wild type, recombinant from E. coli, lactosylated Sepharose; non-covalent homodimer
T5 sequence (P47929 whole entry): as the sequence (P47929 whole entry, the tested form may be a part) above
Text: isothermal titration calorimetry on Gal-7 | TF) antigen CD176) interacts with Gal-7’s CRD (Table S15, Fig. S11) | The data obtained with Lac (Table S14) corroborated the conclusions on activity

Gal-7–8S–Gal-7 = molecular target: T6, Gal-7–8S–Gal-7 (Homo sapiens, UniProt P47929); assay type: binding; settings: 25 °C, pH 7.2, 20 mM phosphate, 10 mM NaCl, 10 mM beta-mercaptoethanol; one-set-of-sites, n fitted
T6 construct: gene LGALS7; two Gal-7 CRDs in one polypeptide joined by the 33-amino-acid linker of Gal-8S (covalent homodimer); recombinant from E. coli
T6 sequence (P47929 whole entry): as the sequence (P47929 whole entry, the tested form may be a part) above
Text: isothermal titration calorimetry on Gal-7–8S–Gal-7

Gal-3–8S–Gal-7 = molecular target: T7, Gal-3–8S–Gal-7; assay type: binding, Homo sapiens; settings: 25 °C, pH 7.2, 20 mM phosphate, 10 mM NaCl, 10 mM beta-mercaptoethanol; one-set-of-sites, n fitted
T7 construct: gene LGALS3; one polypeptide; recombinant from E. coli
Text: isothermal titration calorimetry on Gal-3–8S–Gal-7

Gal-7–8S–Gal-3 = molecular target: T8, Gal-7–8S–Gal-3; assay type: binding, Homo sapiens; settings: 25 °C, pH 7.2, 20 mM phosphate, 10 mM NaCl, 10 mM beta-mercaptoethanol; one-set-of-sites, n fitted; LacNAc 2 mM
T8 construct: gene LGALS7; one polypeptide; recombinant from E. coli
Text: isothermal titration calorimetry on Gal-7–8S–Gal-3

Gal-3–Gal-7 = molecular target: T9, Gal-3–Gal-7; assay type: binding, Homo sapiens; settings: 25 °C, pH 7.2, 20 mM phosphate, 10 mM NaCl, 10 mM beta-mercaptoethanol; one-set-of-sites, n fitted
T9 construct: gene LGALS3; one polypeptide; recombinant from E. coli
Text: isothermal titration calorimetry on Gal-3–Gal-7

Gal-7–Gal-1 = molecular target: T10, Gal-7–Gal-1; assay type: binding, Homo sapiens; settings: 25 °C, pH 7.2, 20 mM phosphate, 10 mM NaCl, 10 mM beta-mercaptoethanol; one-set-of-sites, n fitted
T10 construct: gene LGALS7; direct fusion, Gal-7 CRD N-terminal, Gal-1 CRD C-terminal; one polypeptide; recombinant from E. coli
Text: isothermal titration calorimetry on Gal-7–Gal-1

Row | Kd (Gal-7–Gal-7) | Kd (Gal-1–Gal-7) | Kd (Gal-7–Gal-3) | Kd (Gal-1–8S–Gal-7) | Kd (Gal-7; pH 7.2, 20 mM phosphate, 10 mM NaCl, 10 mM beta-mercaptoethanol, one-set-of-sites, n fitted) | Kd (Gal-7–8S–Gal-7) | Kd (Gal-3–8S–Gal-7) | Kd (Gal-7–8S–Gal-3) | Kd (Gal-3–Gal-7) | Kd (Gal-7–Gal-1) | Kd (Gal-7; pH 7.2) | SMILES
1 | 261 ± 6.21 µM | 175 ± 2.11 µM | 86.5 ± 5.75 µM | 162 ± 3.79 µM | 316 ± 5.88 µM | 287 ± 9.55 µM | 68.6 ± 6.56 µM | 32.5 ± 0.81 µM | 96.2 ± 2.1 µM | 103 ± 6.11 µM |  | CC(=O)N[C@H]1C(O)O[C@H](CO)[C@@H](O[C@@H]2O[C@H](CO)[C@H](O)[C@H](O)[C@H]2O)[C@@H]1O (stereo partly drawn) [LacNAc]
2 |  |  |  |  |  |  |  |  |  |  | 323 ± 5.7 µM | OC[C@H]1O[C@@H](O[C@H]2[C@H](O)[C@@H](O)C(O)O[C@@H]2CO)[C@H](O)[C@@H](O)[C@H]1O (stereo partly drawn) [Lac]
3 |  |  |  |  |  |  |  |  |  |  | 1250 ± 126 µM | CC(=O)N[C@H]1C(O)O[C@H](CO)[C@H](O)[C@@H]1O[C@@H]1O[C@H](CO)[C@H](O)[C@H](O)[C@H]1O (stereo partly drawn) [core 1 mucin-type O-glycan disaccharide]
